Results as given in PubChem BioAssay (NCI).
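GI50 = concentration required for 50% inhibition of growth. At the TGI there is no net growth.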

Assays:
Assay in all cases: NCI tumour cell line growth inhibition, 384-well format
NCI-H226 lung = tested on: NCI-H226 lung
IGROV1 ovarian = tested on: IGROV1 ovarian
OVCAR-8 ovarian = tested on: OVCAR-8 ovarian
MOLT-4 leukemia = tested on: MOLT-4 leukemia
SNB-19 CNS = tested on: SNB-19 CNS
TK-10 renal = tested on: TK-10 renal
SW-620 colon = tested on: SW-620 colon
SK-MEL-5 melanoma = tested on: SK-MEL-5 melanoma
BT-549 breast = tested on: BT-549 breast
MCF7 breast = tested on: MCF7 breast
NCI-H23 lung = tested on: NCI-H23 lung
K-562 leukemia = tested on: K-562 leukemia
COLO 205 colon = tested on: COLO 205 colon
UACC-62 melanoma = tested on: UACC-62 melanoma
SR leukemia = tested on: SR leukemia
SK-MEL-28 melanoma = tested on: SK-MEL-28 melanoma
SNB-75 CNS = tested on: SNB-75 CNS
PC-3 prostate = tested on: PC-3 prostate
T-47D breast = tested on: T-47D breast
NCI-H460 NSCLC = tested on: NCI-H460 NSCLC
MDA-MB-231 breast = tested on: MDA-MB-231 breast
SN12C renal = tested on: SN12C renal
A498 renal = tested on: A498 renal
NCI-H322M lung = tested on: NCI-H322M lung
OVCAR-3 ovarian = tested on: OVCAR-3 ovarian
RPMI-8226 leukemia = tested on: RPMI-8226 leukemia
CCRF-CEM leukemia = tested on: CCRF-CEM leukemia
RXF 393 renal = tested on: RXF 393 renal
786-0 renal = tested on: 786-0 renal
KM12 colon = tested on: KM12 colon
SF-295 CNS = tested on: SF-295 CNS
DU-145 prostate = tested on: DU-145 prostate
HOP-92 NSCLC = tested on: HOP-92 NSCLC
HCC-2998 colon = tested on: HCC-2998 colon
SF-539 CNS = tested on: SF-539 CNS
HS 578T breast = tested on: HS 578T breast
HCT-15 colon = tested on: HCT-15 colon
NCI/ADR-RES ovarian = tested on: NCI/ADR-RES ovarian
A549 NSCLC = tested on: A549 NSCLC
M14 melanoma = tested on: M14 melanoma
EKVX NSCLC = tested on: EKVX NSCLC
MDA-MB-468 breast = tested on: MDA-MB-468 breast
SK-OV-3 ovarian = tested on: SK-OV-3 ovarian
MDA-MB-435 melanoma = tested on: MDA-MB-435 melanoma
HT29 colon = tested on: HT29 colon
SF-268 CNS = tested on: SF-268 CNS
U251 glioblastoma = tested on: U251 glioblastoma
NCI-H522 lung = tested on: NCI-H522 lung
HL-60(TB) leukemia = tested on: HL-60(TB) leukemia
LOX IMVI melanoma = tested on: LOX IMVI melanoma
CAKI-1 renal = tested on: CAKI-1 renal
OVCAR-4 ovarian = tested on: OVCAR-4 ovarian
UO-31 renal = tested on: UO-31 renal
UACC-257 melanoma = tested on: UACC-257 melanoma
MALME-3M melanoma = tested on: MALME-3M melanoma
HCT-116 colon = tested on: HCT-116 colon
HOP-62 NSCLC = tested on: HOP-62 NSCLC
ACHN renal = tested on: ACHN renal

CC(=O)N1c2ccc(-c3ccc(C(=O)O)cc3)cc2[C@H](Nc2ccc(Cl)cc2)C[C@@H]1C
GI50 (NCI-H226 lung): 0.0574 µM
TGI (NCI-H226 lung): 2.51 µM
GI50 (IGROV1 ovarian): 0.0756 µM
TGI (IGROV1 ovarian): 18.8 µM
GI50 (OVCAR-8 ovarian): 0.077 µM
TGI (OVCAR-8 ovarian): 3.1 µM
GI50 (MOLT-4 leukemia): 0.0541 µM
TGI (MOLT-4 leukemia): 2.06 µM
GI50 (SNB-19 CNS): 0.166 µM
TGI (SNB-19 CNS): 27 µM
GI50 (TK-10 renal): 0.0486 µM
TGI (TK-10 renal): 2.65 µM
GI50 (SW-620 colon): 2.99 µM
TGI (SW-620 colon): 22 µM
GI50 (SK-MEL-5 melanoma): 0.208 µM
TGI (SK-MEL-5 melanoma): 13.1 µM
GI50 (BT-549 breast): 0.043 µM
TGI (BT-549 breast): 11.4 µM
GI50 (MCF7 breast): 0.0195 µM
TGI (MCF7 breast): 10.2 µM
GI50 (NCI-H23 lung): 0.137 µM
TGI (NCI-H23 lung): 11.4 µM
GI50 (K-562 leukemia): 0.0842 µM
TGI (K-562 leukemia): 16.8 µM
GI50 (COLO 205 colon): 0.146 µM
TGI (COLO 205 colon): 10.9 µM
GI50 (UACC-62 melanoma): 0.0222 µM
TGI (UACC-62 melanoma): 2.74 µM
GI50 (SR leukemia): < 0.01 µM
TGI (SR leukemia): 0.0502 µM
GI50 (SK-MEL-28 melanoma): 0.0895 µM
TGI (SK-MEL-28 melanoma): 15 µM
GI50 (SNB-75 CNS): 0.213 µM
TGI (SNB-75 CNS): 49.3 µM
GI50 (PC-3 prostate): 0.369 µM
TGI (PC-3 prostate): 20.6 µM
GI50 (T-47D breast): 0.24 µM
TGI (T-47D breast): 12.4 µM
GI50 (NCI-H460 NSCLC): 0.467 µM
TGI (NCI-H460 NSCLC): 15.4 µM
GI50 (MDA-MB-231 breast): 0.0618 µM
TGI (MDA-MB-231 breast): 75.2 µM
GI50 (SN12C renal): 0.108 µM
TGI (SN12C renal): 20.9 µM
GI50 (A498 renal): 0.239 µM
TGI (A498 renal): 13.5 µM
GI50 (NCI-H322M lung): 0.201 µM
TGI (NCI-H322M lung): 13.3 µM
GI50 (OVCAR-3 ovarian): 0.057 µM
TGI (OVCAR-3 ovarian): 11.3 µM
GI50 (RPMI-8226 leukemia): < 0.01 µM
TGI (RPMI-8226 leukemia): 0.108 µM
GI50 (CCRF-CEM leukemia): 0.0605 µM
TGI (CCRF-CEM leukemia): 8.77 µM
GI50 (RXF 393 renal): 0.702 µM
TGI (RXF 393 renal): 20.8 µM
GI50 ([…]-0 renal): 0.0749 µM
TGI (786-0 renal): 24.2 µM
GI50 (KM12 colon): 0.193 µM
TGI (KM12 colon): 15.5 µM
GI50 (SF-295 CNS): 0.975 µM
TGI (SF-295 CNS): 17.3 µM
GI50 (DU-145 prostate): 0.638 µM
TGI (DU-145 prostate): > 100 µM
GI50 (HOP-92 NSCLC): 0.0497 µM
TGI (HOP-92 NSCLC): 16.4 µM
GI50 (HCC-2998 colon): 0.0628 µM
TGI (HCC-2998 colon): 0.676 µM
GI50 (SF-539 CNS): 0.314 µM
TGI (SF-539 CNS): 11.2 µM
GI50 (HS 578T breast): 0.0207 µM
TGI (HS 578T breast): 0.185 µM
GI50 (HCT-15 colon): 0.0535 µM
TGI (HCT-15 colon): 10.3 µM
GI50 (NCI/ADR-RES ovarian): 0.129 µM
TGI (NCI/ADR-RES ovarian): 3.3 µM
GI50 (A549 NSCLC): 0.456 µM
TGI (A549 NSCLC): 18.6 µM
GI50 (M14 melanoma): 0.144 µM
TGI (M14 melanoma): 15.5 µM
GI50 (EKVX NSCLC): 1.39 µM
TGI (EKVX NSCLC): 46.4 µM
GI50 (MDA-MB-468 breast): 0.171 µM
TGI (MDA-MB-468 breast): 10.5 µM
GI50 (SK-OV-3 ovarian): 0.101 µM
TGI (SK-OV-3 ovarian): 14.1 µM
GI50 (MDA-MB-435 melanoma): 0.669 µM
TGI (MDA-MB-435 melanoma): 42.6 µM
GI50 (HT29 colon): 0.0733 µM
TGI (HT29 colon): 15.7 µM
GI50 (SF-268 CNS): 0.386 µM
TGI (SF-268 CNS): 19.5 µM
GI50 (U251 glioblastoma): 0.488 µM
TGI (U251 glioblastoma): 21.7 µM
GI50 (NCI-H522 lung): 0.0243 µM
TGI (NCI-H522 lung): 1.31 µM
GI50 (HL-60(TB) leukemia): < 0.01 µM
TGI (HL-60(TB) leukemia): 0.0259 µM
GI50 (LOX IMVI melanoma): 0.0481 µM
TGI (LOX IMVI melanoma): 0.209 µM
GI50 (CAKI-1 renal): 0.0313 µM
TGI (CAKI-1 renal): 2.56 µM
GI50 (OVCAR-4 ovarian): 0.104 µM
TGI (OVCAR-4 ovarian): 0.659 µM
GI50 (UO-31 renal): 0.2 µM
TGI (UO-31 renal): 13 µM
GI50 (UACC-257 melanoma): 0.192 µM
TGI (UACC-257 melanoma): 53.6 µM
GI50 (MALME-3M melanoma): 0.0309 µM
TGI (MALME-3M melanoma): 1.6 µM
GI50 (HCT-116 colon): 0.18 µM
TGI (HCT-116 colon): 12.8 µM
GI50 (HOP-62 NSCLC): 0.0478 µM
TGI (HOP-62 NSCLC): 7.2 µM
GI50 (ACHN renal): 0.558 µM
TGI (ACHN renal): 19.7 µM
